Laboratory results taken from PubChem BioAssay (NCI).
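Where inhibition never reached the appropriate level, the endpoint shown equals the highest concentration tested. Otherwise, values were interpolated linearly from a five-concentration, 48-hour dose response in 96-well plates. The concentration for 50% growth inhibition is given as GI50. At the TGI there is no net growth.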

How the values were obtained:
Assay in all cases: inhibition of tumour cell growth, NCI panel, 48 h
[1] = test system: CCRF-CEM leukemia
[2] = test system: LOX IMVI melanoma
[3] = test system: MOLT-4 leukemia
[4] = test system: NCI-H460 lung
[5] = test system: NCI-H522 lung
[6] = test system: OVCAR-4 ovarian
[7] = test system: SK-MEL-28 melanoma
[8] = test system: SK-MEL-5 melanoma
[9] = test system: SK-OV-3 ovarian
[10] = test system: SF-268 CNS

`N=c1c2c(=S)n(-c3ccccc3)c(=S)n(-c3ccccc3)c2nc(SCCCN2CCN(c3cccc(Cl)c3)CC2)n1-c1ccccc1` was tested, and the TGI [1] was > 100 µM, the TGI [2] was > 100 µM and the TGI [3] was > 100 µM. The TGI [4] was > 100 µM, the TGI [5] was > 100 µM and the TGI [6] was > 100 µM. For the same compound, the TGI [7] was > 100 µM, the TGI [8] was > 100 µM and the TGI [9] was > 100 µM.

`COC(=O)c1cccc(N[C@@H]2c3cc4c(cc3C(c3cc(OC)c(O)c(OC)c3)[C@H]3C(=O)OCC32)OCO4)c1` (stereo partly specified) gave a TGI [1] of 5.23 µM, a TGI [2] of 11.3 µM and a TGI [3] of 1.36 µM. The TGI [4] was 2.24 µM, the TGI [5] was 8.75 µM and the TGI [6] was > 100 µM. For the same compound, the TGI [10] was > 42.5 µM, the TGI [7] was > 100 µM and the TGI [8] was 3.02 µM. It also gave a TGI [9] of 23.6 µM.

In the case of `C=C1C(=O)OC2/C=C(/C)C3CC(O)C(C)(CC(OC(=O)/C(C)=C/C)C12)O3` (stereo unspecified), the TGI [1] is reported as 8.1 µM, the TGI [2] is reported as 4.4 µM and the TGI [3] is reported as > 26.8 µM. For the same compound, the TGI [4] was 18.3 µM, the TGI [5] was 6.12 µM and the TGI [6] was 20.6 µM. For the same compound, the TGI [10] was 14.4 µM, the TGI [7] was 8.35 µM and the TGI [8] was 16.2 µM. The TGI [9] was > 65.2 µM.

For `O=C(O)CS`, the TGI [1] was > 100 µM, the TGI [2] was > 100 µM and the TGI [3] was > 100 µM. The TGI [4] was > 100 µM, the TGI [5] was > 100 µM and the TGI [6] was > 100 µM. The TGI [10] was > 100 µM, the TGI [7] was > 100 µM and the TGI [8] was > 100 µM. For the same compound, the TGI [9] was > 100 µM.

With `Nc1nc(Cl)cc(OCC2(CO)CC(OCc3ccccc3)C2)n1` (stereo unspecified) the GI50 [1] was 41.6 µM, the GI50 [2] was 45.6 µM and the GI50 [3] was 22 µM. It also gave a TGI [3] of 95.5 µM, a GI50 [4] of 66.3 µM and a GI50 [5] of 47.2 µM. For the same compound, the GI50 [6] was 47.9 µM, the GI50 [7] was 96.9 µM and the GI50 [8] was 23.9 µM. The GI50 [9] was 61.2 µM.

`COc1cc(/C=C/c2cc(/C=C/c3ccc(O)c(OC)c3)nc(N)n2)ccc1O` showed a GI50 [3] of 1.01 µM, a TGI [3] of 5.19 µM and a GI50 [4] of 2.05 µM. For the same compound, the TGI [4] was 5.2 µM, the GI50 [5] was 1.24 µM and the TGI [5] was 2.79 µM. The GI50 [6] was 1.71 µM, the TGI [6] was 11.5 µM and the GI50 [10] was 2.11 µM. The TGI [10] was 15.6 µM, the GI50 [7] was 1.85 µM and the TGI [7] was 4.53 µM. It also gave a GI50 [8] of 1.49 µM, a TGI [8] of 2.89 µM and a GI50 [9] of 2.6 µM. It also gave a TGI [9] of 8.23 µM.

`CC(=O)Oc1ccc2c(c1)oc1c3ccc(OC(C)=O)cc3n(C)c(=O)c21` was tested, and the TGI [1] was > 100 µM, the TGI [3] was > 100 µM and the TGI [4] was > 100 µM. For the same compound, the TGI [10] was 78.2 µM, the TGI [7] was > 100 µM and the TGI [8] was 16.7 µM. The TGI [9] was > 100 µM.

With `C=C1C(=O)C[C@@]23CCC[C@@]12CC(OCOC)C3` (stereo partly specified) the TGI [1] was 6.81 µM, the TGI [2] was 3.87 µM and the TGI [3] was 9.93 µM. It also gave a TGI [4] of 13.2 µM, a TGI [5] of 0.675 µM and a TGI [6] of 5.66 µM. It also gave a TGI [10] of 17.5 µM, a TGI [7] of 8.14 µM and a TGI [8] of 13.3 µM. The TGI [9] was 17.8 µM.

With `S=P1(N2CCCCC2)Oc2ccc3ccccc3c2-c2c(ccc3ccccc23)O1` the TGI [1] was > 31.6 µM, the TGI [2] was > 100 µM and the TGI [3] was > 100 µM. For the same compound, the TGI [4] was > 91.6 µM, the TGI [5] was > 100 µM and the TGI [6] was 97.6 µM. For the same compound, the TGI [10] was > 100 µM, the TGI [7] was > 100 µM and the TGI [8] was > 100 µM. For the same compound, the TGI [9] was > 100 µM.

In the case of `Cc1cc(C)c2c(c1)CC1(Cc3c(C)ccc(C)c3C1=O)C2=O` (stereo unspecified), the TGI [1] is reported as > 100 µM, the TGI [3] is reported as > 100 µM and the TGI [4] is reported as > 100 µM. The TGI [5] was > 100 µM, the TGI [6] was > 100 µM and the TGI [10] was > 100 µM. For the same compound, the TGI [7] was > 100 µM and the TGI [8] was > 100 µM.

`N=C(N)c1ccc(-c2ccc(-c3ccccc3)s2)cc1` gave a GI50 [1] of 1.97 µM, a TGI [1] of 4.57 µM and a GI50 [6] of 1.59 µM. The TGI [6] was 3.21 µM, the GI50 [7] was 1.67 µM and the TGI [7] was 3.13 µM. For the same compound, the GI50 [8] was 1.77 µM, the TGI [8] was 3.19 µM and the GI50 [9] was 2.42 µM. It also gave a TGI [9] of 7.27 µM.

With `O=[N+]([O-])c1ccccc1NC1c2ccccc2Oc2ccccc21` the GI50 [1] was 4.44 µM, the TGI [1] was > 100 µM and the GI50 [2] was 5.52 µM. The TGI [2] was > 100 µM, the GI50 [3] was 5.03 µM and the TGI [3] was > 100 µM. The GI50 [4] was 3.87 µM, the TGI [4] was > 100 µM and the GI50 [5] was 3.84 µM. For the same compound, the TGI [5] was > 100 µM, the GI50 [6] was 8.21 µM and the TGI [6] was > 100 µM. The GI50 [10] was 8.06 µM, the TGI [10] was > 100 µM and the GI50 [7] was 4.85 µM. For the same compound, the TGI [7] was > 100 µM, the GI50 [8] was 3.44 µM and the TGI [8] was > 100 µM.

In the case of `O=C1C=CC2=[N+]([O-])C(c3ccccc3)(c3ccccc3)C(=Nc3ccccc3)C2=C1`, the TGI [1] is reported as 2.18 µM, the TGI [2] is reported as 3.74 µM and the TGI [4] is reported as 34.4 µM. The TGI [5] was 3.02 µM, the TGI [6] was 3.28 µM and the TGI [10] was 11.4 µM. It also gave a TGI [8] of 27.2 µM and a TGI [9] of 31.8 µM.

`CCCCCCCC/C=C\CCCCCCCC(=O)O` showed a TGI [1] of 197 µM, a TGI [2] of 239 µM and a TGI [3] of 331 µM. The TGI [4] was 192 µM, the TGI [5] was 210 µM and the TGI [6] was > 352 µM. For the same compound, the TGI [10] was 192 µM, the TGI [7] was 329 µM and the TGI [8] was > 282 µM. The TGI [9] was > 500 µM.

In the case of `CN(C)Cc1cc(C(C)(C)C)ccc1-c1ccc(C(C)(C)C)cc1CN(C)C`, the TGI [1] is reported as > 100 µM, the TGI [2] is reported as > 100 µM and the TGI [3] is reported as > 100 µM. The TGI [4] was > 100 µM, the TGI [5] was > 100 µM and the TGI [6] was > 100 µM. For the same compound, the TGI [10] was > 100 µM, the TGI [7] was > 100 µM and the TGI [8] was > 100 µM. For the same compound, the TGI [9] was > 100 µM.

In the case of `CCN(CC)CCCNc1ncc(C)c2[nH]c3ccncc3c12`, the TGI [1] is reported as > 71.5 µM, the TGI [2] is reported as 14.9 µM and the TGI [3] is reported as 18.4 µM. The TGI [4] was 15.6 µM, the TGI [5] was 22.8 µM and the TGI [6] was 13.8 µM. For the same compound, the TGI [10] was 32.4 µM, the TGI [7] was 27.4 µM and the TGI [8] was 28.1 µM. The TGI [9] was 15.9 µM.

In the case of `CN1CCCCC(C#N)(c2ccccc2)CC1` (stereo unspecified), the TGI [1] is reported as > 100 µM, the TGI [3] is reported as > 100 µM and the TGI [4] is reported as > 100 µM. For the same compound, the TGI [6] was > 100 µM, the TGI [10] was > 100 µM and the TGI [7] was > 100 µM. For the same compound, the TGI [8] was > 100 µM and the TGI [9] was > 100 µM.

In the case of `COC(C(=O)C(O)C(C)O)C1CC2C=C3C=C(OC4CC(OC5CC(O)C(OC)C(C)O5)C(OC(C)=O)C(C)O4)C(C)C(=O)C3=C(O)C2=C(O)C1OC1CC(OC2CC(OC3CC(C)(O)C(OC(=O)C(C)C)C(C)O3)C(O)C(C)O2)C(O)C(C)O1` (stereo unspecified), the TGI [3] is reported as > 100 µM, the TGI [5] is reported as < 0.01 µM and the TGI [6] is reported as > 100 µM. For the same compound, the TGI [10] was < 0.01 µM, the TGI [7] was < 0.01 µM and the TGI [8] was < 0.01 µM. For the same compound, the TGI [9] was > 100 µM.
